Here are results for two compounds from patent US20130040903A1, “PHARMACEUTICAL COMPOSITIONS FOR TREATING DEPRESSION AND ANXIETY” (priority 2007, published 2013).

Molecules are shown by their SMILES.

One assay deals with Kunming (KM) mice. The experiment in a line: Mouse light-dark transition experiment (Experiments 3, 10). Format: in vivo. To be noted: 2.5 mg/kg into the stomach once daily 7 days, within 10 minutes. Here is the method:
3.5.1 Group division and administration of drug: The mice are grouped randomly as 5 groups, and 10 mice are in each group. 1. High dose of Embodiment 1 (80 mg/kg); 2. middle dose of Embodiment 1 (40 mg/kg); 3. low dose of Embodiment 1 (20 mg/kg); 4. Diazepam (2.5 mg/kg); and 5. physiological saline (normal saline, NS). The drugs are fed into the mouse stomach once every day, and the mouse is administered for continuous 7 days. In the period of administration, the mouse eats and drinks freely, and the experiment is proceeded after 1 hour of the last administration of drug on the eighth day.
Mouse light-dark transition test: The dark chamber occupies one third of the light-dark transition chamber (44 cm×21 cm×21 cm), and the top is capped. The light chamber occupies two third thereof and is illuminated brightly. […] The times that the mouse enters into the dark chamber and returns to the light chamber within 10 minutes are determined, and the times thereof are being the index for evaluating the anti-anxiety function of the drugs. […]
Mouse light-dark transition test: The dark chamber occupies one third of the light-dark transition chamber (44 cm×21 cm×21 cm), and the top is capped. […] The times that the mouse enters into the dark chamber and returns to the light chamber within 10 minutes are determined, and the times thereof are being the index for evaluating the anti-anxiety function of the drugs.

The subject of the next assay is ICR mice. The experiment in a line: Resetpine-induced mouse body temperature decrease experiment (Experiments 2, 5, 7). To be noted: Experiment 5; 3 mg/kg P.O. 7 days; 4 hours after Resetpine 2 mg/kg i.p. The class given is in vivo. How it is done: 2.5.1 Group division and administration of drug: The mice are grouped randomly, and 10 mice are in each group. 1. High dose of Embodiment 1 (80 mg/kg, P.O., administered for 7 days); 2. middle dose of Embodiment 1 (40 mg/kg, P.O., administered for 7 days); 3. low dose of Embodiment 1 (20 mg/kg, P.O., administered for 7 days); 4.
2.5.2 Experimental method: After 1 hour of the last administration of drug on the eighth day, the mouse's anal temperature is determined. Then 2 mg of Resetpine per kilogram of the body weight is given by intraperitoneal injection. After 4 hours of injecting Resetpine, mouse's anal temperature is determined once again. The depth and time of injecting the thermometer into mouse's anus are identical in each temperature measurement.
5.5.1 Group division and administration of drug: The mice are grouped randomly, and 10 mice are in each group. 1. […]
5.5.2 Experimental method: After 1 hour of the last administration of drug on the eighth day, the mouse's anal temperature is determined. […] After 4 hours of injecting Resetpine, mouse's anal temperature is determined once again. […]
2.5.2 Experimental method: After 1 hour of the last administration of drug on the eighth day, the mouse's anal temperature is determined. […] After 4 hours of injecting Resetpine, mouse's anal temperature is determined once again. […]

With `CN1C(=O)CN=C(c2ccccc2)c2cc(Cl)ccc21` [Diazepam], the “Times of passing from dark chamber to light chamber” value with Kunming (KM) mice (Experiment 3) was 11.3 ± 4.54; in the assay with Kunming (KM) mice (Experiment 10), 11.7 ± 4.47.

Take `Fc1ccc([C@@H]2CCNC[C@H]2COc2ccc3c(c2)OCO3)cc1` [Paroxetine]: the Time of non-movement with ICR mice came out at 2.38 ± 0.69 s.
